Experimental data taken from patent EP0411567A1, “5-(omega-Aminoacyl)-5,10-dihydro-11H-dibenzo[b,e][1,4]-diazepin-11-ones, processes for their preparation, and their use as medicaments” (ARZNEIMITTELWERK DRESDEN GmbH, priority 1989, dated 1991).
Structures can show the parent of a compound that is named as a salt. Where two headings read alike, the source gives them in different places.

How the values were obtained:
[1] = tested on: CaCl₂-Arrhythmie der Ratte; assay: CaCl₂-induced arrhythmia in the rat (antifibrillatory effect); assay type: in vivo; settings: iv; for ED50: Rattus norvegicus, read-out: CaCl₂-Arrhythmie Ratte, ED₅₀
Description: (§1) ED₅₀ i.v. = Dosis in mg/kg, welche die fibrillatorische Wirkung von CaCl₂ an Ratten nach I.v.-Applikation der Testsubstanz um 50 % unterdrückt. Berechnung nach der Probit-Regressionsanalyse mit Vertrauensbereich, p = 0,05 (Werte in Klammern) LD₅₀ i.v. = Letale Dosis in mg/kg bei 50 % der Versuchstiere einer orientierenden Bestimmung der akuten Toxizität an Wistarratten hauseigener Zucht, I.v.-Applikation in die Schwanzvene, 3 - 4 Dosierungen zu je 10 Tieren.

Wistarratten = assay: Orienting determination of acute toxicity in rats, i.v.; assay type: in vivo, Ratte; settings: therapeutic breadth; rat LD₅₀ i.v. / rat CaCl₂-arrhythmia ED₅₀
Description: Die Verbindungen der allgemeinen Formeln I, VII bzw.
as §1
(§2) Berechnung nach der Probit-Regressionsanalyse mit Vertrauensbereich, p = 0,05 (Werte in Klammern) [formula] zur Ermittlung der therapeutischen Breite eff. Dosis = effektive Dosis in mg/kg Wirkungsdauer = Wirkungsdauer in Minuten an Hunden, 24 h nach zweistufiger Koronarligatur

[2] = tested on: Hunden, 24 Stunden nach zweistufiger Koronarligatur (Harris-Modell); assay: Two-stage coronary ligation in the dog (Harris model); assay type: in vivo, Hund; settings: for Ektopische Kontraktionen in Prozent/min / Gesamtzahl der Herzkontraktionen/min: mean x; for Harris Hund Wirkungsdauer / Harris Hund eff. Dosis i.v.: dogs, 24 h after two-stage coronary ligation; for Harris Hund Wirkungsdauer: at the effective i.v. dose
Description: Am Modell der zweistufigen Koronarligatur am Hund nach Harris (Methodik bei Kaverina und Mitarbeiter, Pharmazie 40, S. 845 (1985)) zeigen die Verbindungen der allgemeinen Formeln I, VII bzw. X eine starke und langanhaltende Wirkung (siehe Tabellen 2 und 3).
Bereits in der 5. Minute nach der intravenösen Injektion der Verbindungen der allgemeinen Formeln I, VII bzw. X in einer Konzentration von 0,005 mmol/kg (ca. 2,0 mg/kg) wird die ektopischeArrhythmie um das 2- bis 3-fache des Basiswertes unterdrückt, während die Gesamtzahl der Herzkontraktionen konstant bleibt. Die Wirkung auf die ektopische Arrhythmie hält 30 bis 60 Minuten lang an. Tabelle 1
as §2
x = Mittelwert s = Standardabweichung ±

[3] = tested on: Hunden, 24 Stunden nach zweistufiger Koronarligatur (Harris-Modell); settings: Harris model, cited from earlier work
[4] = dose suppressing the fibrillatory effect of CaCl₂ by 50 %, probit regression, confidence range p = 0,05 in brackets
[5] = 30 min after 0,005 mmol/kg i.v.
[6] = 60 min after 0,005 mmol/kg i.v.
[7] = 120 min after 0,005 mmol/kg i.v.
[8] = 180 min after 0,005 mmol/kg i.v.
[9] = Basis (before injection), 0,005 mmol/kg group
[10] = 5 min after 0,02 mmol/kg (5,4 mg/kg)
[11] = 30 min after 0,02 mmol/kg (5,4 mg/kg)
[12] = Basis (before injection), 0,02 mmol/kg (5,4 mg/kg) group
[13] = 300 min after 0,005 mmol/kg i.v.
[14] = 360 min after 0,005 mmol/kg i.v.

Structure (SMILES) | ED50 [1, 4] [mg/kg] | Q LD₅₀/ED₅₀ (Wistarratten) | Ektopische Kontraktionen in Prozent/min ([2]; 5 min after 0,005 mmol/kg i.v.) [Prozent] | Gesamtzahl der Herzkontraktionen/min ([2]; 5 min after 0,005 mmol/kg i.v.) [min⁻¹] | Ektopische Kontraktionen in Prozent/min [2, 5] [Prozent] | Gesamtzahl der Herzkontraktionen/min [2, 5] [min⁻¹] | Ektopische Kontraktionen in Prozent/min [2, 6] [Prozent] | Gesamtzahl der Herzkontraktionen/min [2, 6] [min⁻¹] | Ektopische Kontraktionen in Prozent/min [2, 7] [Prozent] | Gesamtzahl der Herzkontraktionen/min [2, 7] [min⁻¹] | Ektopische Kontraktionen in Prozent/min [2, 9] [Prozent] | Gesamtzahl der Herzkontraktionen/min [2, 9] [min⁻¹] | Harris Hund Wirkungsdauer [2] [min] | Harris Hund eff. Dosis i.v. [2] | further results
CN(C)CCCCCC(=O)N1c2ccccc2NC(=O)c2ccccc21 [Beispiel 1, 5-(6-Dimethylaminocapronyl)-5,10-dihydro-11H-dibenzo [b,e]-[1,4] diazepin-11-on·HCl] | 0.41 | 207 | 30 | 192 | 47 | 193 | 54 | 177 | 68 | 175 | 99 | 164 | 60 | 1,76 mg/kg | Ektopische Kontraktionen in Prozent/min [2, 8]: 80 Prozent; Gesamtzahl der Herzkontraktionen/min [2, 8]: 169 min⁻¹
CCN(CC)CC(=O)Nc1c(C)cccc1C [Lidocain, reference compound] |  |  |  |  |  |  |  |  |  |  |  |  | 15 | 8,0 mg/kg | ED50 [1]: 3.1 mg/kg; Ektopische Kontraktionen in Prozent/min [2, 10]: 34 Prozent; Gesamtzahl der Herzkontraktionen/min [2, 10]: 139 min⁻¹; Ektopische Kontraktionen in Prozent/min [2, 11]: 78 Prozent; Gesamtzahl der Herzkontraktionen/min [2, 11]: 138 min⁻¹; Ektopische Kontraktionen in Prozent/min [2, 12]: 83 Prozent; Gesamtzahl der Herzkontraktionen/min [2, 12]: 146 min⁻¹; Gesamtzahl der Herzkontraktionen ([2]; in words, Harris model): Abnahme; ektopische Arrhythmie ([2]; in words, Harris model): Abnahme
C=CC1CN2CCC1CC2C(O)c1ccnc2ccc(OC)cc12 (centres unmarked) [Chinidin] |  |  |  |  |  |  |  |  |  |  |  |  |  |  | CaCl₂-Arrhythmie Ratte, ED₅₀ ([1]; in vivo): 2,7 (2,0 - 3,7) mg/kg; Harris Hund Wirkungsdauer ([3]; dogs, listed as whose dose is marked [1] (literature)): 15 min; Harris Hund eff. Dosis i.v. ([3]; dogs, value marked [1] (Mokler and van Arman 1962)): 10,0 [1] mg/kg; Gesamtzahl der Herzkontraktionen ([3]; in words, literature [1]): Abnahme; ektopische Arrhythmie ([3]; in words, literature [1]): Abnahme
O=C1Nc2cc(Cl)ccc2N(C(=O)CCCCCCN2CCOCC2)c2ccccc21 [Beispiel 9, 8-Chlor-5-(7-N-morpholinoönanthoyl)-5,10-dihydro-11H-dibenzo [b,e] [1,4]diazepin-11-on] | 0.16 | 256 | 21 | 179 | 38 | 164 | 42 | 168 | 42 | 156 | 90 | 156 | 120 | 2,21 mg/kg | Ektopische Kontraktionen in Prozent/min [2, 8]: 73 Prozent; Gesamtzahl der Herzkontraktionen/min [2, 8]: 159 min⁻¹; Ektopische Kontraktionen in Prozent/min [2, 13]: 79 Prozent; Gesamtzahl der Herzkontraktionen/min [2, 13]: 163 min⁻¹; Ektopische Kontraktionen in Prozent/min [2, 14]: 89 Prozent; Gesamtzahl der Herzkontraktionen/min [2, 14]: 180 min⁻¹
CCN(CC)CCCC(=O)N1c2ccc(Cl)cc2NC(=O)c2ccccc21 [Beispiel 4, 8-Chlor-5-(4-diethylaminobutyryl)-5,10-dihydro-11H-dibenzo[b,e] [1,4]diazepin-11-on] | 0.044 | 1614 |  | 175 |  | 180 |  | 181 |  | 183 |  | 183 | 30 | 1,93 mg/kg | 
CCN(CC)CCCCCC(=O)N1c2ccc(Cl)cc2NC(=O)c2ccccc21 [Beispiel 6, 8-Chlor-5-(6-diethylaminocapronyl)-5,10-dihydro-11H-dibenzo[be] [1,4]diazepin-11-on] | 0.44 | 86 | 20 | 170 | 4 | 159 | 37 | 162 | 76 | 162 | 78 | 167 | 60 | 2,07 mg/kg | 
CCN(CC)CCCC(=O)N1c2ccccc2NC(=O)c2ccccc21 [Beispiel 2, 5-(4-Diethylaminobutyryl)-5,10-dihydro-11H-dibenzo[b,e]-[1,4]diazepin-11-on] |  |  | 26 |  | 24 |  | 75 |  | 90 |  | 88 |  |  |  | 
